Measurements: US10179770B2, “Quinolines derivatives as novel anticancer agents” (GENOSCIENCE PHARMA, priority 2013, dated 2019)

Experiments:
Type in all cases: cell-based, human
UACC-62 = assay: NCI-60 screen (SRB); conditions: UACC-62 (Melanoma)
Procedure: (§1) The human tumor cell lines of the cancer screening panel are grown in RPMI 1640 medium containing 5% fetal bovine serum and 2 mM L-glutamine. For a typical screening experiment, cells are inoculated into 96 well microtiter plates in 100 μL at plating densities ranging from 5,000 to 40,000 cells/well depending on the doubling time of individual cell lines. After cell inoculation, the microtiter plates are incubated at 37° C., 5% CO2, 95% air and 100% relative humidity for 24 h prior to addition of experimental drugs.
(§2) After 24 h, two plates of each cell line are fixed in situ with TCA, to represent a measurement of the cell population for each cell line at the time of drug addition (Tz). Experimental drug is solubilized in dimethyl sulfoxide at 400-fold the desired final maximum test concentration and stored frozen prior to use. At the time of drug addition, an aliquot of frozen concentrate is thawed and diluted to twice the desired final maximum test concentration with complete medium containing 50 μg/ml gentamicin. Additional four, 10-fold or ½ log serial dilutions are made to provide a total of five drug concentrations plus control. Aliquots of 100 μl of these different drug dilutions are added to the appropriate microtiter wells already containing 100 μl of medium, resulting in the required final drug concentrations.
(§3) Following drug addition, the plates are incubated for an additional 48 h at 37° C., 5% CO2, 95% air, and 100% relative humidity. For adherent cells, the assay is terminated by the addition of cold TCA. Cells are fixed in situ by the gentle addition of 50 μl of cold 50% (w/v) TCA (final concentration, 10% TCA) and incubated for 60 minutes at 4° C. The supernatant is discarded, and the plates are washed five times with tap water and air dried. Sulforhodamine B (SRB) solution (100 μl) at 0.4% (w/v) in 1% acetic acid is added to each well, and plates are incubated for 10 minutes at room temperature. After staining, unbound dye is removed by washing five times with 1% acetic acid and the plates are air dried. Bound stain is subsequently solubilized with 10 mM trizma base, and the absorbance is read on an automated plate reader at a wavelength of 515 nm. For suspension cells, the methodology is the same except that the assay is terminated by fixing settled cells at the bottom of the wells by gently adding 50 μl of 80% TCA (final concentration, 16% TCA). Using the seven absorbance measurements [time zero, (Tz), control growth, (C), and test growth in the presence of drug at the five concentration levels (Ti)], the percentage growth is calculated at each of the drug concentrations levels.
(§4) Percentage growth inhibition is calculated as: [(Ti−Tz)/(C−Tz)]×100 for concentrations for which Ti>/=Tz (1) [(Ti−Tz)/Tz]×100 for concentrations for which Ti<Tz (2)
(§5) Growth inhibition of 50% (GI50) is calculated from [(Ti−Tz)/(C−Tz)]×100=50 (3)
(§6) which is the drug concentration resulting in a 50% reduction in the net protein increase (as measured by SRB staining) in control cells during the drug incubation.
(§7) The drug concentration resulting in total growth inhibition (TGI) is calculated from Ti=Tz (4)
(§8) The LC50 (concentration of drug resulting in a 50% reduction in the measured protein at the end of the drug treatment as compared to that at the beginning) indicating a net loss of cells following treatment is calculated from [(Ti−Tz)/Tz]×100=−50 (5)
(§9) Values are calculated for each of these three parameters if the level of activity is reached; however, if the effect is not reached or is exceeded, the value for that parameter is expressed as greater or less than the maximum or minimum concentration tested.

PC-3 = assay: NCI-60 screen (SRB); conditions: PC-3 (Prostate)
Procedure: as §1, §2, §3, §4, §5, §6, §7, §8, §9

OVCAR-3 = assay: NCI-60 screen (SRB); conditions: OVCAR-3 (Ovarian)
Procedure: as §1, §2, §3, §4, §5, §6, §7, §8, §9

[1] = test system: ALDH+ cancer stem cells (CSC) in MOLM-14 cell line; assay: Aldefluor kit assay, ALDH+ compartment analysis; conditions: for Aldefluor™ positive CSCs (% of control) / Activity against CSCs in Aldefluor™ assay (proportion of CSCs): MOLM-14; for Aldefluor™ positive CSCs (% of control): 72 h; for Activity against CSCs in Aldefluor™ assay (proportion of CSCs): dose dependent, Cytarabine up to 3-fold its EC50; for Aldefluor positive CSCs (% of control): MOLM-14 cell line, 72 h incubation
From the text: Analysis of the of aldehyde dehydrogenase (ALDH) compartment and high activity level of aldehyde dehydrogenase activity (ALDH+) was used to detect tumor initiating cells (cancer stem cells, CSC) population. The Aldefluor™ kit assay (StemCell Technologies) allowed to assess the activity of drugs on CSC cells like in aa MOLM-14 acute myeloid leukemia cell line population. The Aldefluor™ kit assay was used according to the procedure described by the manufacturer. Briefly, MOLM-14 cell line was cultured in RPMI-1640 Medium supplemented with 10% v/v Fetal Bovine Serum (FBS), 1% Penicillin-Streptomycin and maintained at 37° C. with 5% CO2. 5·10^5 cells were used in this assay. Each compound was added at different concentrations (see table 13 and 14), and cell cultures were incubated for 72 h. Vehicle (H2O) was used as a control, and all compounds were tested in a constant percentage of vehicle. Cells obtained from cell culture were incubated for 45 minutes at 37° C. with Aldefluor™ buffer assay containing the Bodipy™-aminoacetaldehyde (BAAA), a fluorescent ALDH aldehyde substrate. ALDH converts the fluorescent substrate BAAA to the Bodipy™-aminoacetic acid (BAA) which is retained in the cell. An active efflux inhibitor is present in the Adelfluor™ assay buffer in order to avoid the active efflux from the cell of the substrate product ALDH dependent converted BAA. The fluorescent signal is directly proportional to the ALDH activity in the cells and is measured by flow cytometry. A negative control is used to measure the background fluorescence level. For such purpose, 4-(N,N-diethylamino)-benzaldehyde (DEAB) was used as selective ALDH inhibitor. A viability cell count was performed using LIVE/DEAD® Fixable Far Red Dead Cell Stain Kit (Invitrogen). The experimental data are analyzed using a computer program, Graphpad Prism (GraphPad Software, Inc. La Jolla, Calif.) and EC50 values were determined as the dose of compound required to reduce absorbance values to 50% of the signal obtained for vehicle treated cell cultures.

| Structure (SMILES) | Growth percent at 10 μM (UACC-62) | Growth percent at 10 μM (PC-3) | Growth percent at 10 μM (OVCAR-3) | Aldefluor™ positive CSCs (% of control) ([1]; 5 μM) | Aldefluor™ positive CSCs (% of control) ([1]; 10 μM) | Aldefluor™ positive CSCs (% of control) ([1]; 20 μM) | Aldefluor™ positive CSCs (% of control) ([1]; 40 μM) | Activity against CSCs in Aldefluor™ assay (proportion of CSCs) [1] | GI50 (OVCAR-3; Homo sapiens) | CC50 (OVCAR-3; Homo sapiens, read-out: LC50 (the source's name)) | TGI (OVCAR-3) | Aldefluor positive CSCs (% of control) ([1]; 5 μM) | Aldefluor positive CSCs (% of control) ([1]; 10 μM) | Aldefluor positive CSCs (% of control) ([1]; 20 μM) | Aldefluor positive CSCs (% of control) ([1]; 40 μM) |
| --- | --- | --- | --- | --- | --- | --- | --- | --- | --- | --- | --- | --- | --- | --- | --- |
| CC(C)(C)NC1CCN(c2cc(-c3ccc(Cl)cc3)nc3ccccc23)CC1.Cl.Cl [XII-4, 2-(4-chloro-phenyl)-4-(4-N-tert-butylamino-piperidin-1-yl)quinoline dihydrochloride] | ××××× (cell growth % < −80) | +++ (cell growth 20 > % < 40) | − (cell growth % > 80) |  |  |  |  |  |  |  |  |  |  |  |  |
| CCN(CC)C1CCN(C(C)c2cc(-c3ccccc3)nc3ccccc23)CC1.Cl.Cl (stereo not shown) [XIX-3, 2-phenyl-4-{1-[4-(N,N-diethylamino)piperidin-1-yl]-eth-1-yl}quinoline dihydrochloride] | ×××× (cell growth −60 > % < −80) | + (cell growth 60 > % < 80) | + (cell growth 60 > % < 80) | 86 % of control | 66 % of control | 42 % of control | 25 % of control | reduced the proportion of CSCs | 14 µM | 55 µM | 28 µM |  |  |  |  |
| Cc1ccc(-c2cc(N3CCC(NC(C)(C)C)CC3)c3ccccc3n2)cc1.Cl.Cl [XIII-8, 2-(4-methyl-phenyl)-4-(4-N-tert-butylamino-piperidin-1-yl)quinoline dihydrochloride] |  |  |  |  |  |  |  | reduced the proportion of CSCs |  |  |  | 84 % of control | 83 % of control | 58 % of control | 23 % of control |
